Reference: patent US11433086B2, “Combination of T-cell checkpoint inhibitors with inhibitors of e-selectin or CXCR4, or with heterobifunctional inhibitors of both E-selectin and CXCR4” (GlycoMimetics, Inc., priority 2016, dated 2022)

Tests used:
[1] = tested on: T-Cells (CD4+ and CD8+), Tregs, MDSCs and checkpoint markers in tumors and spleens; assay: Flow cytometry immune profile of tumors and spleens, Day 15; assay type: in vivo, Balb/c mice
Protocol: The anti-cancer activity of an anti-mPD-L1 antibody (10F.9G2) and GMI-1359 was compared to a rat isotype control antibody against indeterminate subcutaneous CT26.WT carcinoma xenografts in female Balb/c mice. An immune profile of each mouse was determined by sampling tumors and spleens, staining for several markers of an active immune response, and detecting the levels of these markers via flow cytometry. Flow cytometry markers included: T-Cells (CD4^+ and CD8^+), Regulatory T-Cells (Tregs). (CD4^+/CD25^+/FoxP3^+), MDSCs (CD11b^+/Gr1^+) and co-expression of CCR7^+ and CD62^+ added to the existing CD4/CD8 panel.
At 24 hours after the final dose of GMI-1359 (Day 15), all mice from Groups 7-12 were euthanized for tumor and spleen collection. All mice were euthanized via over exposure to carbon dioxide. The tumors and spleens were excised and placed in a labeled 5 mL sampling tube filled with cold PBS and placed on ice. The tumors and spleens were provided to the Molecular Imaging's in vitro group for flow cytometric analysis.
For tumor dissociation, the tumor was weighed and <1 g tissue was processed according to Miltenyi Tumor Dissociation Protocol 2.2.1, Dissociation of soft tumors, before proceeding to the red blood cell lysis.
For spleen dissociation, the plunger on a 3 mL syringe was used to crush the spleen in 10 mL DPBS until organ was well broken up and the DPBS became cloudy with cells. The cell suspension was then filtered with a 70 μm strainer on a 50 mL tube and washed with 20 mL DPBS. The suspension was then centrifuged for 7 minutes at 300 rcf and the supernatant was discarded before proceeding the red blood cell lysis.
For the red blood cell lysis, each of the tumor and spleen samples were re-suspended in 3 mL ACK Lysis Buffer and then incubated for 5 minutes at room temperature. The suspension was diluted by adding 10 mL DPBS, and then the cells were collected via centrifugation for 5 minutes at 300 rcf. The cells were again re-suspended in 30 mL DPBS and counted. The suspension was centrifuged again, and the supernatant was discarded before proceeding to the Fc block.
For the Fc block, each of the tumor and spleen samples were re-suspended at 1E+06 cells per 100 μL in Flow Cytometry Staining buffer with 1 μL Fc block per 1E+06 cells. The suspensions were incubated for 5 minutes at room temperature, then centrifuged for 5 minutes at 300 rcf, and the supernatant was removed before proceeding to surface staining.
For the surface staining, the following antibody dilutions were prepared, 50 μL per reaction in Flow Cytometry Staining Buffer (except FoxP3):
For surface staining, the tumor and spleen cells were re-suspended at 1E+06 cells per 50 μL. Each of the 50 μL cell suspensions containing 1E+06 cells was added to 50 μL antibodies diluted in staining buffer in round-bottom 96-well plate. The plate was incubated for 30 minutes in the dark at room temperature on the orbital shaker, setting 2.5. The samples were diluted by adding 200 μL Flow Cytometry Staining Buffer and then centrifuged for 5 minutes at 300 rcf. The supernatant was aspirated and the cells were washed wash by re-suspending in 250 μL Flow Cytometry Staining Buffer and spinning. If staining for intracellular markers, after washing, the sample was then prepared according to the intracellular staining procedure described below. The samples were then re-suspended in 250 μL Flow Cytometry Staining Buffer and were ready for Flow Cytometry Analysis.
When staining for intracellular markers, following the wash step, the cells were re-suspended in 200 μL FoxP3 Fixation/Permeabilization working solution and incubated for 30 minutes in the dark at room temperature. The samples were then centrifuged at 400 rcf for 5 minutes at room temperature, then the supernatant was discarded. 200 μL 1× permeabilization buffer was added to each well. The samples were centrifuged at 400 rcf for 5 minutes at room temperature, then the supernatant was discarded. […]

[2] = target: T1, CXCR4 (Homo sapiens, UniProt P61073); assay: Flow based competitive binding assay, anti-CXCR4 antibody binding to Raji cells; details: phycoerythrin-conjugated anti-CXCR4 antibody
T1 construct: host or cells: Raji cells
Protocol: FIG. 21 relates to an experiment carried out to determine the competitive binding activity (IC50) of GMI-1359 against E-selectin and CXCR4. GMI-1359 was assessed for inhibition of sialyl Le^X binding to immobilized E-selectin and α-CXCR4 antibody binding to Raji cells.
The inhibition assay to screen GMI-1359 as an antagonist of CXCR4 was a flow based competitive binding assay, which allowed the determination of […] values. Raji cells (ATCC number TIB-152) were washed twice with Hanks Balanced Saline Solution (HBSS) containing 0.05% bovine serum albumin (BSA). After the second wash, the cells were resuspended to about 2.5×10^6 cells per mL and 80 μl of cells (approximately 2×10^5 cells) were added to BD 2063 tubes. Next, 10 μl of either GMI-1359 or HBSS/BSA (as a negative control) were added to the cells and the tube was placed at room temperature for 10 minutes. Then, 10 μl of a phycoerythrin-conjugated anti-CXCR4 antibody (R&D Systems, FAB170P) or as a negative control, 10 μl of an isotype control antibody (R&D Systems, IC003P) was added to the cells with HBSS/BSA. The antibodies were allowed to bind to the cells for 1 hour at 4° C. […] Binding of the anti-CXCR4-PE antibody to the cells was assessed by flow cytometry, and the median fluorescent intensity was determined. […]

T1 sequence (P61073 whole entry): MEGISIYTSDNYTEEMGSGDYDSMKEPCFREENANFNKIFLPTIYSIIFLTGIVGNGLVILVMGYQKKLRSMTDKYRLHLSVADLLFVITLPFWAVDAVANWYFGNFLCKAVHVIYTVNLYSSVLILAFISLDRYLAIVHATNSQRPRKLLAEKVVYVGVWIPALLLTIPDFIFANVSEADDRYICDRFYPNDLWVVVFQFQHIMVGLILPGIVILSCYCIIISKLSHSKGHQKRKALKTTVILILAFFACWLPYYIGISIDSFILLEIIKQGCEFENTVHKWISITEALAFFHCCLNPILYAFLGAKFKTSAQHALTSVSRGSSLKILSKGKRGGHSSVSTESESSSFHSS

CCC1CC(C(=O)NCCNCc2ccc(CN3CCCNCCNCCCNCC3)c(Br)c2)CC(OC2OC(CO)C(O)C(O[C@@H](CC3CCCCC3)C(=O)O)C2NC(C)=O)C1OC1OC(C)C(O)C(O)C1O (stereo partly shown) [GMI-1359]
average percentage of CCR7^+/CD62L^+ cells within the CD8^+ T-cell population in spleens ([1]; spleens, Day 15, Groups 8-12): 1.00% | average percentage of CD4^+ T-cells expressing CCR7 but not CD62L in spleens ([1]; spleens, Day 15, Groups 8-12): 33.36% | average percentage of CD4^+ T-cells expressing CD62L but not CCR7 in spleens ([1]; spleens, Day 15, Groups 8-12): 5.42% | average percentage of CD4^+ T-cells expressing both CCR7 and CD62L in spleens ([1]; spleens, Day 15, Groups 8-12): 2.05% | average percentage of CD4^+ cells in spleens ([1]; spleens, Day 15, Groups 8-12): 13.43% | average percentage of CD8^+ T-cells expressing CCR7 but not CD62L in spleens ([1]; spleens, Day 15, Groups 8-12): 27.95% | average percentage of CD8^+ T-cells expressing CD62L but not CCR7 in spleens ([1]; spleens, Day 15, Groups 8-12): 2.94% | average percentage of CD8^+ cells in spleens ([1]; spleens, Day 15, Groups 8-12): 8.77% | average percentage of MDSCs in spleens ([1]; spleens, Day 15, Groups 8-12): 3.70% | average percentage of Tregs in spleens ([1]; spleens, Day 15, Groups 8-12): 10.00% | average percentage of cells expressing CTLA-4 in spleens ([1]; spleens, Day 15, Groups 8-12): 12.31% | average percentage of cells expressing PD-1 in spleens ([1]; spleens, Day 15, Groups 8-12): 5.53% | average percentage of cells expressing PD-L1 in spleens ([1]; spleens, Day 15, Groups 8-12): 81.50% | percentage of CD4^+/CCR7^+/CD62L^+ cells in spleens, change ([1]; spleens, Day 15, compared to vehicle, GMI-1359 or isotype control antibody, respectively): did not | average percentage of (CD4^+) cells expressing CD62L but not CCR7 in tumors ([1]; tumors, Day 15, Groups 8-12): 31.43% | average percentage of CCR7^+/CD62L^+ cells within the CD8^+ T-cell population in tumors ([1]; tumors, Day 15, Groups 8-12): 25.84% | average percentage of CD4^+ T-cells expressing both CCR7 and CD62L in tumors ([1]; tumors, Day 15, Groups 8-12): 25.32% | average percentage of CD8^+ cells in tumors ([1]; tumors, Day 15, Groups 8-12): 15.61% | average percentage of cells expressing CTLA-4 in tumors ([1]; tumors, Day 15, Groups 8-12): 42.80% | average percentage of cells expressing PD-1 in tumors ([1]; tumors, Day 15, Groups 8-12): 23.39% | average percentage of cells expressing PD-L1 in tumors ([1]; tumors, Day 15, Groups 8-12): 34.44% | average percentage of myeloid-derived suppressor cells (MDSCs) in tumors ([1]; tumors, Day 15, Groups 8-12): 2.66% | average percentage of regulatory T-cells (Tregs) in tumors ([1]; tumors, Day 15, Groups 8-12): 2.93% | detection of CD4^+/CCR7^+/CD62L^− and CD8^+/CCR7^+/CD62L^− populations in tumor samples ([1]; tumors, Day 15, Groups 8-12): Neither CD4^+/CCR7^+/CD62L^− nor CD8^+/CCR7^+/CD62L^− populations were detected | percentage of CD8^+ T-cells expressing CD62L but not CCR7 in tumors ([1]; tumors, Day 15, Groups 8-12): 25.65% | average percentage of CD4^+ cells in tumors ([1]; tumors, Day 15, Groups 8-12 (GMI-1359 40 mg/kg IP Days 3-14, antibody 10 mg/kg IP Days 3,6,10,13)): 7.02% | percentage of Treg among tumor infiltrating cells (summary comparison) ([1]; tumors, Day 15, groups 8, 10, 12, saline group 7 3.3%): 2.9% | inhibition of anti-CXCR4 antibody binding [2]: inhibits ligand binding
